# Measured values published in patent US10525017B2, “Composition containing meso-2,3-butanediol” (Amorepacific Corporation, priority 2014, dated 2020).
# What was measured:
# [1] = Skin irritation test, 24 h patch test; assay type: in vivo, human
# Protocol: In order to evaluate the skin safety of a human body on 1,3-butanediol, 1,2-butanediol and 1,2-hexanediol (conventionally used diol), which are similar to meso-2,3-butanediol, S,S-2,3-butanediol and R,R-2,3-butanediol that are stereoisomers of 2,3-butanediol except that the position of a hydroxy group is different, the patch test was carried out for 24 hours. The patch was attached to the upper part of the subject's back, and 20 μl of the prepared test substance was applied to the patch using an IQ chamber (chemotechique, Sweeden). The patch was attached and after the lapse of 24 hours, the patch was removed. After removal of the patch, the first reading was performed after 30 minutes, and the second reading was performed after 24 hours.
# In order to investigate the intensity of the skin irritation of the samples, weighting values were given according to the degree of positive reaction of the skin, skin average reactivity was determined, and the skin irritation of the sample was judged. The skin average reactivity was calculated using the mathematical formula 1 below, and the determination criteria are as shown in Table 5 below.
# [2] = system: Staphylococcus aureus (ATCC 6538); experiment: Antibacterial activity test (MIC); assay type: cell-based; conditions: broth culture, 25 to 32° C., 24 to 72 hours; tested 0.01 to 10% (v/v)
# Protocol: (§1) In order to compare the antibacterial activities by the position and stereoscopic orientation of the hydroxyl group of the diol, the antibacterial activities (minimum inhibitory concentration, MIC) against the samples described in Table 1 below, that is, six kinds of diols such as 1,3-butanediol, were measured.
# (§2) The antibacterial activity measurement tests were performed using bacteria, yeasts and molds, such as Escherichia coli (ATCC 8739), Pseudomonas aeruginosa (ATCC 9027), Staphylococcus aureus (ATCC 6538), Candida albicans (ATCC 10231), and Aspergillus niger; (ATCC 16404). Respective substances or the like were added to Tryptic Soy broth and Sabouraud Dextrose (SD) broth at a concentration of 0.01 to 10% (v/v), the culture solution was prepared in a liquid phase, and the bacteria, yeasts, and molds were inoculated, and then cultured at 25 to 32° C. for 24 to 72 hours to observe the state of the bacteria.
# [3] = system: Escherichia coli (ATCC 8739); experiment: Antibacterial activity test (MIC); assay type: cell-based; conditions: broth culture, 25 to 32° C., 24 to 72 hours; tested 0.01 to 10% (v/v)
# Protocol: as §1, §2
# [4] = system: Aspergillus niger (ATCC 16404); experiment: Antibacterial activity test (MIC); assay type: cell-based; conditions: broth culture, 25 to 32° C., 24 to 72 hours; tested 0.01 to 10% (v/v)
# Protocol: as §1, §2
# [5] = system: Candida albicans (ATCC 10231); experiment: Antibacterial activity test (MIC); assay type: cell-based; conditions: broth culture, 25 to 32° C., 24 to 72 hours; tested 0.01 to 10% (v/v)
# Protocol: as §1, §2
# [6] = system: Pseudomonas aeruginosa (ATCC 9027); experiment: Antibacterial activity test (MIC); assay type: cell-based; conditions: broth culture, 25 to 32° C., 24 to 72 hours; tested 0.01 to 10% (v/v)
# Protocol: as §1, §2
# [7] = Content 30%, 20 μl, 24 h patch on back, less than 1 = no irritation, 1-3 mild, 3-5 moderate
"minimum inhibitory concentration, MIC, S. aureus [2]","minimum inhibitory concentration, MIC, E. coli [3]","minimum inhibitory concentration, MIC, A. niger [4]","minimum inhibitory concentration, MIC, C. albicans [5]","minimum inhibitory concentration, MIC, P. aeruginosa [6]",Structure (SMILES),"Skin irritation Score (skin average reactivity) ([1]; human, in vivo, 24 h, 30 %)","Skin irritation Score (skin average reactivity) [1, 7]","Skin irritation Score (skin average reactivity) ([1]; human, in vivo, 24 h, 20 %)","numerical value of skin irritation, in words ([1]; in vivo)"
2.5 % (v/v),1.25 % (v/v),0.625 % (v/v),1.25 % (v/v),1.25 % (v/v),"CCCCC(O)CO (stereo not shown) [1,2-hexanediol]",–,–,2.54,–
5 % (v/v),1.25 % (v/v),1.25 % (v/v),2.5 % (v/v),2.5 % (v/v),"C[C@H](O)[C@@H](C)O [Meso-2,3-butanediol, meso-2,3-butanediol]",0.41,–,–,lower
10 % (v/v),2.5 % (v/v),5 % (v/v),5 % (v/v),5 % (v/v),"C[C@@H](O)[C@@H](C)O [R,R-2,3-butanediol]",1.45,–,–,–

# Second part, the compound before the results:
Structure (SMILES),"minimum inhibitory concentration, MIC, S. aureus [2]","minimum inhibitory concentration, MIC, E. coli [3]","minimum inhibitory concentration, MIC, A. niger [4]","minimum inhibitory concentration, MIC, C. albicans [5]","minimum inhibitory concentration, MIC, P. aeruginosa [6]","Skin irritation Score (skin average reactivity) ([1]; human, in vivo, 24 h, 30 %)","Skin irritation Score (skin average reactivity) [1, 7]","Skin irritation Score (skin average reactivity) ([1]; human, in vivo, 24 h, 20 %)","numerical value of skin irritation, in words ([1]; in vivo)"
"C[C@H](O)[C@H](C)O [S,S-2,3-butanediol]",2.5 % (v/v),5 % (v/v),1.25 % (v/v),5 % (v/v),5 % (v/v),2.12,–,–,–
"CC(O)CCO (stereo not shown) [1,3-butanediol]",>10 % (v/v),>10 % (v/v),>10 % (v/v),>10 % (v/v),>10 % (v/v),–,0.52,–,–
"CCC(O)CO (stereo not shown) [1,2-butanediol]",1.25 % (v/v),5 % (v/v),2.5 % (v/v),5 % (v/v),2.5 % (v/v),–,2.48,–,–
